The values below come from ChEMBL document CHEMBL1146248, “Cytotoxic small molecule dimers and their inhibitory activity against human breast cancer cells” (Bioorg Med Chem Lett, 2007).

The subject of one assay is SK-BR-3. Kind of assay: Antiproliferative activity against human estrogen receptor negative SKBr3 cells overexpressing Her2 after 72 hrs. The class given is functional, cell-based. The settings on record: SK-BR-3, 72 h.
A further assay concerns MCF7. Kind of assay: Antiproliferative activity against human estrogen receptor positive MCF7 cells after 72 hrs. The class given is functional, cell-based. The settings on record: MCF7, 72 h.

The structures appear in SMILES notation.

On to `O=C(Nc1cc(Cl)cc(Cl)c1)c1cccc(C(=O)Nc2cc(Cl)cc(Cl)c2)n1`, for which the IC50 with SK-BR-3 was determined as 16.3 µM; with MCF7, 10.2 µM. Take `O=C(Nc1cc(Cl)cc(Cl)c1)c1ccc(C(=O)Nc2cc(Cl)cc(Cl)c2)nc1`: the IC50 in the assay with SK-BR-3 turned out to be 2.3 µM; in the assay on MCF7, 4.1 µM. Turning to `Cc1cc(C)cc(NC(=O)c2cccc(C(=O)Nc3cc(C)cc(C)c3)n2)c1`, the IC50 in the assay on SK-BR-3 and with MCF7 was greater than 100 µM each time. Take `O=C(Nc1ccc(O)cc1)c1ccc(C(=O)Nc2ccc(O)cc2)nc1`: the IC50 in the assay with SK-BR-3 and in the assay with MCF7 was greater than 100 µM throughout. Regarding `COc1cc(NC(=O)c2ccnc(C(=O)Nc3cc(OC)cc(OC)c3)c2)cc(OC)c1`, the IC50 with SK-BR-3 and with MCF7 was greater than 100 µM throughout. For `COc1cc(NC(=O)c2cccc(C(=O)Nc3cc(OC)cc(OC)c3)n2)cc(OC)c1`, the IC50 with SK-BR-3 was greater than 100 µM; with MCF7, 52.1 µM. Regarding `O=C(Nc1ccc2c(c1)OCCO2)c1cccc(C(=O)Nc2ccc3c(c2)OCCO3)n1`, the IC50 with SK-BR-3 was greater than 100 µM; with MCF7, 27.5 µM.

Turning to `Cc1c(O)ccc2cc(NC(=O)c3ccnc(C(=O)Nc4cc5ccc(O)c(C)c5oc4=O)c3)c(=O)oc12`, the IC50 in the assay on SK-BR-3 and in the assay on MCF7 was greater than 100 µM each time. Take `O=C(Nc1ccc2c(c1)OCCO2)c1cnc(C(=O)Nc2ccc3c(c2)OCCO3)cn1`: the IC50 in the assay with SK-BR-3 and with MCF7 was greater than 100 µM in each case. On to `O=C(Nc1ccc2c(c1)OCCOCCOCCOCCO2)c1cccc(C(=O)Nc2ccc3c(c2)OCCOCCOCCOCCO3)c1`, for which the IC50 in the assay on SK-BR-3 and in the assay on MCF7 was greater than 100 µM in each case. On to `O=C(Nc1ccc2c(c1)OCCO2)c1ccc(C(=O)Nc2ccc3c(c2)OCCO3)c2ccccc12`, for which the IC50 with SK-BR-3 and in the assay with MCF7 was greater than 100 µM throughout. For the compound `O=C(Nc1ccc2ccccc2c1)c1ccnc(C(=O)Nc2ccc3ccccc3c2)c1`, the figures for the IC50 in the assay on SK-BR-3 and in the assay on MCF7 were greater than 100 µM and 81.8 µM, respectively. Take `Cc1c(O)ccc2cc(NC(=O)c3cccc(C(=O)Nc4cc5ccc(O)c(C)c5oc4=O)c3)c(=O)oc12`: the IC50 with SK-BR-3 and with MCF7 was greater than 100 µM each time. For the compound `O=C(CCCCCCC(=O)Nc1ccc2c(c1)OCCO2)Nc1ccc2c(c1)OCCO2`, the IC50 with SK-BR-3 and in the assay on MCF7 was greater than 100 µM throughout. In the case of `O=C(Nc1ccc2c(c1)OCCO2)c1cccc(C(=O)Nc2ccc3c(c2)OCCO3)c1`, the IC50 in the assay with SK-BR-3 and in the assay on MCF7 was greater than 100 µM each time. Turning to `COc1cc(NC(=O)c2ccc(C(=O)Nc3cc(OC)cc(OC)c3)nc2)cc(OC)c1`, the figures for the IC50 in the assay on SK-BR-3 and with MCF7 were 34.9 µM and 22.8 µM, respectively. As for `O=C(Nc1ccc2c(c1)OCCO2)c1ccc(C(=O)Nc2ccc3c(c2)OCCO3)nc1`, the IC50 in the assay with SK-BR-3 and in the assay on MCF7 was greater than 100 µM throughout.

`O=C(Nc1ccc(F)c(F)c1)c1cccc(C(=O)Nc2ccc(F)c(F)c2)c1` had an IC50 with SK-BR-3 greater than 100 µM. Take `O=C(NCc1ccc2c(c1)OCO2)c1ccc(C(=O)NCc2ccc3c(c2)OCO3)nc1`: the IC50 in the assay with SK-BR-3 and in the assay on MCF7 was greater than 100 µM each time. As to `O=C(Nc1ccc2ccccc2c1)c1cccc(C(=O)Nc2ccc3ccccc3c2)c1`, the half-inhibitory concentration (IC50) stood at 15.2 µM in the assay with SK-BR-3 and 4.6 µM with MCF7. Turning to `Cc1cc(C(=O)Nc2ccc3c(c2)OCCO3)c(C)cc1C(=O)Nc1ccc2c(c1)OCCO2`, the IC50 in the assay on SK-BR-3 and in the assay on MCF7 was greater than 100 µM throughout.

As for `COc1cc(NC(=O)c2cccc(C(=O)Nc3cc(OC)cc(OC)c3)c2)cc(OC)c1`, the half-inhibitory concentration (IC50) in the assay with SK-BR-3 and in the assay on MCF7 was greater than 100 µM in each case. For the compound `O=C(Nc1ccc2c(c1)OCO2)c1ccc(C(=O)Nc2ccc3c(c2)OCO3)nc1`, the IC50 with SK-BR-3 and in the assay on MCF7 was greater than 100 µM in each case. Consider `O=C(Nc1cc(F)cc(F)c1)c1ccc(C(=O)Nc2cc(F)cc(F)c2)nc1`, for which the IC50 with SK-BR-3 and with MCF7 was greater than 100 µM in each case. On to `O=C(Nc1cc(Cl)cc(Cl)c1)c1ccc(C(=O)Nc2cc(Cl)cc(Cl)c2)cc1`, for which the half-maximal inhibitory concentration (IC50) in the assay on SK-BR-3 and with MCF7 was greater than 100 µM throughout. Regarding `O=C(Nc1ccc(Cl)cc1O)c1ccc(C(=O)Nc2ccc(Cl)cc2O)nc1`, the half-inhibitory concentration (IC50) in the assay on SK-BR-3 and with MCF7 was greater than 100 µM in each case. On to `O=C(CCCCCCC(=O)Nc1cc(Cl)cc(Cl)c1)Nc1cc(Cl)cc(Cl)c1`, for which the IC50 in the assay on SK-BR-3 and with MCF7 was greater than 100 µM throughout.

Regarding `O=C(Nc1cc(Cl)cc(Cl)c1)c1cccc(C(=O)Nc2cc(Cl)cc(Cl)c2)c1`, the figures for the IC50 in the assay with SK-BR-3 and in the assay on MCF7 were 4.5 µM and 2.7 µM, respectively. For the compound `O=C(Nc1cc(F)ccc1F)c1cccc(C(=O)Nc2cc(F)ccc2F)n1`, the IC50 in the assay with SK-BR-3 and in the assay on MCF7 was greater than 100 µM in each case. Consider `Cc1c(O)ccc2cc(NC(=O)c3ccc(C(=O)Nc4cc5ccc(O)c(C)c5oc4=O)nc3)c(=O)oc12`, for which the half-inhibitory concentration (IC50) in the assay on SK-BR-3 and in the assay with MCF7 was greater than 100 µM each time. With `O=C(Nc1ccccc1F)c1ccnc(C(=O)Nc2ccccc2F)c1`, the IC50 with SK-BR-3 was 87.7 µM; with MCF7 it was 40.4 µM. On to `O=C(Nc1ccc2c(c1)OCCO2)c1ccc(C(=O)Nc2ccc3c(c2)OCCO3)cc1`, for which the IC50 in the assay on SK-BR-3 and with MCF7 was greater than 100 µM throughout. For the compound `Cc1cc(C)cc(NC(=O)c2ccnc(C(=O)Nc3cc(C)cc(C)c3)c2)c1`, the IC50 in the assay with SK-BR-3 and in the assay on MCF7 was greater than 100 µM in each case. Take `O=C(Nc1ccc2c(c1)OCCO2)c1ccnc(C(=O)Nc2ccc3c(c2)OCCO3)c1`: the IC50 in the assay on SK-BR-3 and with MCF7 was greater than 100 µM throughout. In the case of `O=C(Nc1ccccc1O)c1ccc(C(=O)Nc2ccccc2O)nc1`, the IC50 in the assay on SK-BR-3 and in the assay on MCF7 was greater than 100 µM in each case. On to `O=C(Nc1cc(F)ccc1F)c1cccc(C(=O)Nc2cc(F)ccc2F)c1`, for which the IC50 in the assay on SK-BR-3 and in the assay on MCF7 was greater than 100 µM throughout. As for `O=C(Nc1cccc(Cl)c1)c1ccnc(C(=O)Nc2cccc(Cl)c2)c1`, the IC50 with SK-BR-3 worked out at 9 µM; in the assay on MCF7, 2.4 µM. For `O=C(Nc1cc(F)cc(F)c1)c1ccnc(C(=O)Nc2cc(F)cc(F)c2)c1`, the 50% inhibitory concentration (IC50) was greater than 100 µM in the assay with SK-BR-3 and 14.7 µM in the assay with MCF7.

For the compound `O=C(Nc1cc(Cl)cc(Cl)c1)c1cc(Cl)c(C(=O)Nc2cc(Cl)cc(Cl)c2)cc1Cl`, the IC50 with SK-BR-3 and in the assay on MCF7 was greater than 100 µM in each case. Regarding `O=C(Nc1cc(Cl)cc(Cl)c1)c1ccnc(C(=O)Nc2cc(Cl)cc(Cl)c2)c1`, the values for the half-maximal inhibitory concentration (IC50) in the assay on SK-BR-3 and in the assay with MCF7 were 10.5 µM and 4.2 µM, respectively. The matching figures for `O=C(NCCc1ccc2c(c1)OCO2)c1ccc(C(=O)NCCc2ccc3c(c2)OCO3)nc1`: greater than 100 µM and greater than 100 µM. The matching figures for `O=C(Nc1ccccc1F)c1ccc(C(=O)Nc2ccccc2F)nc1`: greater than 100 µM and greater than 100 µM. Consider `O=C(Nc1ccc2c(c1)OCCOCCOCCOCCO2)c1ccc(C(=O)Nc2ccc3c(c2)OCCOCCOCCOCCO3)nc1`, for which the IC50 in the assay on SK-BR-3 is 4.5 µM; in the assay with MCF7, 7.2 µM. `O=C(Nc1ccc(F)c(F)c1)c1ccc(C(=O)Nc2ccc(F)c(F)c2)nc1`: the concentration for half-maximal inhibition (IC50) with SK-BR-3 and in the assay with MCF7 was greater than 100 µM each time. For `O=C(Nc1cc(F)ccc1F)c1ccnc(C(=O)Nc2cc(F)ccc2F)c1`, the IC50 in the assay on SK-BR-3 and with MCF7 was greater than 100 µM throughout. As to `N#Cc1ccc(NC(=O)c2ccnc(C(=O)Nc3ccc(C#N)cc3)c2)cc1`, the IC50 in the assay on SK-BR-3 and with MCF7 was greater than 100 µM each time. On to `O=C(Nc1cccc(Cl)c1)c1cccc(C(=O)Nc2cccc(Cl)c2)c1`, for which the 50% inhibitory concentration (IC50) is greater than 100 µM in the assay with SK-BR-3 and 56.5 µM with MCF7. The matching figures for `Cc1c(O)ccc2cc(NC(=O)c3cccc(C(=O)Nc4cc5ccc(O)c(C)c5oc4=O)n3)c(=O)oc12`: greater than 100 µM and greater than 100 µM. Take `O=C(Nc1cc(F)cc(F)c1)c1cccc(C(=O)Nc2cc(F)cc(F)c2)n1`: the IC50 in the assay on SK-BR-3 and in the assay on MCF7 was greater than 100 µM throughout.

As for `Cc1cc(C)cc(NC(=O)c2ccc(C(=O)Nc3cc(C)cc(C)c3)nc2)c1`, the IC50 in the assay on SK-BR-3 was determined as 104 µM; with MCF7, 16.3 µM. For `O=C(Nc1cc(Cl)cc(Cl)c1)c1ccc(C(=O)Nc2cc(Cl)cc(Cl)c2)c2ccccc12`, the IC50 in the assay with SK-BR-3 and with MCF7 was greater than 100 µM each time. As to `O=C(Nc1cc(F)ccc1F)c1ccc(C(=O)Nc2cc(F)ccc2F)nc1`, the IC50 in the assay on SK-BR-3 and in the assay on MCF7 was greater than 100 µM each time.

Consider `O=C(Nc1cc(F)cc(F)c1)c1cccc(C(=O)Nc2cc(F)cc(F)c2)c1`, for which the IC50 with SK-BR-3 and in the assay with MCF7 was greater than 100 µM in each case. Take `O=C(Nc1ccc(F)c(F)c1)c1ccnc(C(=O)Nc2ccc(F)c(F)c2)c1`: the IC50 in the assay on SK-BR-3 and in the assay with MCF7 was greater than 100 µM throughout. With `Cc1cc(C)cc(NC(=O)c2cccc(C(=O)Nc3cc(C)cc(C)c3)c2)c1`, the IC50 was found to be 12.2 µM with SK-BR-3 and 2.1 µM with MCF7. Take `CO[C@H]1[C@H](OC(=O)c2ccc(C)[nH]2)[C@H](O)[C@@H](Oc2ccc3c(O)c(NC(=O)c4c[nH]c(C(=O)Nc5c(O)c6ccc(O[C@H]7OC(C)(C)[C@@H](OC)[C@H](OC(=O)c8ccc(C)[nH]8)[C@@H]7O)c(C)c6oc5=O)c4C)c(=O)oc3c2C)OC1(C)C` [COUMERMYCIN A1]: the IC50 in the assay with SK-BR-3 turned out to be 3.2 µM; in the assay on MCF7, 6.7 µM. Take `O=C(Nc1ccccc1F)c1cccc(C(=O)Nc2ccccc2F)c1`: the IC50 with SK-BR-3 and in the assay with MCF7 was greater than 100 µM throughout. As for `O=C(Nc1ccc2c(c1)OCCO2)c1cc(Cl)c(C(=O)Nc2ccc3c(c2)OCCO3)cc1Cl`, the IC50 in the assay on SK-BR-3 and in the assay on MCF7 was greater than 100 µM each time. Take `Cc1cc(C(=O)Nc2cc(Cl)cc(Cl)c2)c(C)cc1C(=O)Nc1cc(Cl)cc(Cl)c1`: the half-maximal inhibitory concentration (IC50) in the assay with SK-BR-3 and in the assay on MCF7 was greater than 100 µM throughout.

For `N#Cc1ccc(NC(=O)c2cccc(C(=O)Nc3ccc(C#N)cc3)c2)cc1`, the IC50 in the assay on SK-BR-3 and in the assay on MCF7 was greater than 100 µM in each case. Take `O=C(NC1CCCCC1)c1ccc(C(=O)NC2CCCCC2)nc1`: the IC50 in the assay with SK-BR-3 and in the assay on MCF7 was greater than 100 µM in each case.

Turning to `O=C(Nc1ccc2c(c1)OCCO2)c1ccc(C(=O)Nc2ccc3c(c2)OCCO3)c([N+](=O)[O-])c1`, the IC50 in the assay with SK-BR-3 and in the assay on MCF7 was greater than 100 µM throughout. As to `O=C(Nc1ccc2ccccc2c1)c1ccc(C(=O)Nc2ccc3ccccc3c2)nc1`, the IC50 with SK-BR-3 and in the assay on MCF7 was greater than 100 µM throughout.

Turning to `O=C(Nc1cccc(Cl)c1)c1ccc(C(=O)Nc2cccc(Cl)c2)nc1`, the IC50 with SK-BR-3 was determined as 28.3 µM; with MCF7, 27.3 µM.
